Reference: PMC8589628, “Characterization and Antimicrobial Studies of Iturin-Like and Bogorol-Like Lipopeptides From Brevibacillus spp. Strains GI9 and SKDU10” (Frontiers in Microbiology, 2021)
Peptide text beside a SMILES is read from it. * marks the point of attachment. X1 = CC(C)CCCCCCCCCCCCC(=O)*

Tests used:
S. aureus MTCC 1430 = format: cell-based, Staphylococcus aureus; conditions: MTCC 1430, 24 h
Experimental: (§1) The antimicrobial activity of HPLC purified compounds was determined against various test strains including S. aureus MTCC 1430, Vibrio cholera MTCC 3904, Bacillus subtilis MTCC 121, Listeria monocytogenes MTCC 839, C. albicans MTCC 183, C. albicans MTCC 1637, C. albicans MTCC 227, C. tropicalis MTCC 184, C. glabrata MTCC 3019, and C. inconspicua MTCC 1074. Antimicrobial activity was also tested against clinical Candida strains and phytopathogenic fungi viz. Fusarium moniliforme MTCC 158, Alternaria brassicicola MTCC 2102 and Colletotrichum acutatum MTCC 1037. Bacterial and Candida test strains were grown in NB and yeast malt broth (YMB), respectively. Fungal test strains were grown in potato dextrose broth (PDB). Minimum inhibitory concentrations (MICs) of purified compounds were evaluated against test organisms by using a microtiter plate dilution assay. Mid-log-phase test strains (5 × 10^5 CFU/ml) were incubated in a 96-well plate with different concentrations of the lipopeptides for 24–48 h at 37°C (final volume of 200 μl). OD was measured at 600 nm after 24 and 48 h for bacteria and yeast, respectively, using an ELISA microplate reader (Thermo Scientific, United States). MIC against phytopathogenic fungi was determined using the 96-well microtiter plate method ([Sharma et al., 2020]).

[1] = Collapse drop assay (CDA); format: physicochemical; conditions: 5 μl of 10 μg/ml stock on mineral oil droplet, observed after 1 min
Experimental: Collapse Drop Assay (CDA) was performed as mentioned earlier ([Sharma et al., 2020]). To a well of 96 well microtiter plate, 2 μl mineral oil was added and equilibrated at 37°C for 24 h. Purified lipopeptide (5 μl of 10 μg/ml stock) was applied to the top of oil droplet and its shape was observed after 1 min with a magnifying glass for collapse and spread due to reduction in surface tension. Water and triton X-100 served as controls ([Youssef et al., 2004]). To determine critical micelle concentration (CMC), different concentrations of purified lipopeptides were prepared and surface tension was measured on a tensiometer (KRUSS K10T, Germany) at room temperature. The values for CMC were estimated by plotting surface tension as a function of concentration of lipopeptides. A point of intersection was located between the pre and post CMC data plot. The mean value of triplicate experiments was used to increase the accuracy. Concentrations ranging from 0.1 to 1000 μg/ml were used to determine surface tension on a tensiometer.

C. rugosa 470141 = assay: MIC, microtiter plate dilution assay, clinical strain; format: cell-based; conditions: YMB, 37°C, OD 600 nm after 48 h
Experimental: (§2) Brevibacillus sp. strains GI-9 and SKDU10 were known to produce class IId bacteriocins identified as laterosporulins a ([Singh et al., 2012]; [Baindara et al., 2016]). Both strains were grown on nutrient agar (NA, Himedia, India). All test strains used in this study were obtained from Microbial Type Culture Collection and Gene bank (MTCC), Chandigarh, India. Clinical Candida strains were obtained from the National Culture Collection of Pathogenic Fungi (NCCPF), PGIMER, Chandigarh, India, and all strains were grown on recommended media.
as §1

C. parapsilosis 450030 = assay: as above; format: cell-based; conditions: YMB, 37°C, OD 600 nm after 48 h
Experimental: as §2, §1

C. krusei 440009 = assay: as above; format: cell-based; conditions: YMB, 37°C, OD 600 nm after 48 h
Experimental: as §2, §1

C. glabrata MTCC 3019 = assay: MIC, microtiter plate dilution assay; format: cell-based; conditions: YMB, 5 × 10^5 CFU/ml, 37°C, OD 600 nm after 48 h
Experimental: as §1

C. tropicalis MTCC 184 = assay: MIC, microtiter plate dilution assay; format: cell-based; conditions: YMB, 5 × 10^5 CFU/ml, 37°C, OD 600 nm after 48 h
Experimental: as §1

C. haemulonii MTCC 2766 = assay: MIC, microtiter plate dilution assay; format: cell-based; conditions: YMB, 5 × 10^5 CFU/ml, 37°C, OD 600 nm after 48 h
Experimental: as §1

C. albicans 400054 = assay: MIC, microtiter plate dilution assay, clinical strain; format: cell-based, Candida albicans; conditions: YMB, 37°C, OD 600 nm after 48 h
Experimental: as §2, §1

C. albicans MTCC 183 = assay: MIC, microtiter plate dilution assay; format: cell-based, Candida albicans; conditions: YMB, 5 × 10^5 CFU/ml, 37°C, OD 600 nm after 48 h
Experimental: as §1

C. acutatum MTCC1037 = assay: MIC against phytopathogenic fungi, 96-well microtiter plate method; format: cell-based, Colletotrichum acutatum; conditions: PDB
Experimental: as §1

[2] = tested on: A. brassicicola MTCC 2102; assay: as above; format: cell-based, Alternaria brassicicola; conditions: PDB
Experimental: as §1

C. inconspicua MTCC 1074 = assay: MIC, microtiter plate dilution assay; format: cell-based; conditions: YMB, 5 × 10^5 CFU/ml, 37°C, OD 600 nm after 48 h
Experimental: as §1

C. haemulonii 470125 = assay: MIC, microtiter plate dilution assay, clinical strain; format: cell-based; conditions: YMB, 37°C, OD 600 nm after 48 h
Experimental: as §2, §1

C. tropicalis 420024 = assay: as above; format: cell-based; conditions: YMB, 37°C, OD 600 nm after 48 h
Experimental: as §2, §1

C. auris 470126 = assay: as above; format: cell-based; conditions: YMB, 37°C, OD 600 nm after 48 h
Experimental: as §2, §1

C. kefyr 410004 = assay: as above; format: cell-based; conditions: YMB, 37°C, OD 600 nm after 48 h
Experimental: as §2, §1

F. moniliforme MTCC 158 = assay: MIC against phytopathogenic fungi, 96-well microtiter plate method; format: cell-based, Fusarium moniliforme; conditions: PDB
Experimental: as §1

C. albicans MTCC 227 = assay: MIC, microtiter plate dilution assay; format: cell-based, Candida albicans; conditions: YMB, 5 × 10^5 CFU/ml, 37°C, OD 600 nm after 48 h
Experimental: as §1

C. albicans MTCC 1637 = assay: MIC, microtiter plate dilution assay; format: cell-based, Candida albicans; conditions: YMB, 5 × 10^5 CFU/ml, 37°C, OD 600 nm after 48 h
Experimental: as §1

**Q.** For `CC(C)CCCCCCCCCCCCC(=O)N[C@H](C(=O)NCC(=O)N[C@@H](C)C(=O)N[C@@H](CO)C(=O)N[C@@H](Cc1c[nH]cn1)C(=O)N[C@@H](CCC(N)=O)C(=O)N[C@@H](CCC(N)=O)C(=O)O)[C@@H](C)O` [ILL] (X1-TGASHQQ-OH; N-terminus assumed), which MIC value (S. aureus MTCC 1430) is on record?
**A.** 150 to 170 mg/L

**Q.** What about the “Collapse drop assay reaction” value [1] of the same molecule?
**A.** positive reaction

**Q.** With “Dhb-Tyr-Orn-Ile-Val-Val-Lys-Val-Leu-Asp-Val-Glu [BLL, bogorol like lipopeptide purified from Brevibacillus sp. strain SKDU10; 12 amino acids and C17 hydroxy fatty acid side chain]” as the molecule, how does the MIC value (C. rugosa 470141) read?
**A.** 240 to 250 mg/L

**Q.** What about the MIC value (C. parapsilosis 450030) of the same molecule?
**A.** 290 to 310 mg/L

**Q.** What about the MIC value (C. krusei 440009) of the same molecule?
**A.** 240 to 250 mg/L

**Q.** And the MIC value (C. glabrata MTCC 3019)?
**A.** 290 to 300 mg/L

**Q.** And the MIC value (C. tropicalis MTCC 184)?
**A.** 290 to 310 mg/L

**Q.** And the MIC value (C. haemulonii MTCC 2766)?
**A.** 340 to 360 mg/L

**Q.** What about the MIC value (C. albicans 400054) of the same molecule?
**A.** 240 to 260 mg/L

**Q.** And the MIC value (C. albicans MTCC 183)?
**A.** 150 to 170 mg/L

**Q.** And the MIC value (C. acutatum MTCC1037)?
**A.** 430 to 450 mg/L

**Q.** And the MIC value [2]?
**A.** 500 to 520 mg/L

**Q.** What about the MIC value (C. inconspicua MTCC 1074) of the same molecule?
**A.** 100 to 110 mg/L

**Q.** And the MIC value (C. haemulonii 470125)?
**A.** 245 to 255 mg/L

**Q.** What about the MIC value (C. tropicalis 420024) of the same molecule?
**A.** 300 to 320 mg/L

**Q.** What about the MIC value (C. auris 470126) of the same molecule?
**A.** 140 to 160 mg/L

**Q.** What about the MIC value (C. kefyr 410004) of the same molecule?
**A.** 190 to 210 mg/L

**Q.** What about the MIC value (F. moniliforme MTCC 158) of the same molecule?
**A.** 490 to 510 mg/L

**Q.** And the “Collapse drop assay reaction” value [1]?
**A.** positive reaction

**Q.** What about the MIC value (C. albicans MTCC 227) of the same molecule?
**A.** 300 to 310 mg/L

**Q.** What about the MIC value (C. albicans MTCC 1637) of the same molecule?
**A.** 250 to 260 mg/L
